Reference: PubChem BioAssay (NCI)
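Five compound concentrations were applied to cells in 96-well plates for 48 hours; endpoints were derived by simple linear interpolation of the resulting dose-response curve. GI50 marks 50% less growth. At the TGI there is no net growth.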

What was measured:
Test in all cases: NCI-60 cell line screen, 48 h
786-0 renal = system: 786-0 renal
A498 renal = system: A498 renal
A549 NSCLC = system: A549 NSCLC
ACHN renal = system: ACHN renal
BT-549 breast = system: BT-549 breast
CAKI-1 renal = system: CAKI-1 renal
CCRF-CEM leukemia = system: CCRF-CEM leukemia
COLO 205 colon = system: COLO 205 colon
DU-145 prostate = system: DU-145 prostate
EKVX NSCLC = system: EKVX NSCLC
HCC-2998 colon = system: HCC-2998 colon
HCT-116 colon = system: HCT-116 colon
HCT-15 colon = system: HCT-15 colon
HL-60(TB) leukemia = system: HL-60(TB) leukemia
HOP-62 NSCLC = system: HOP-62 NSCLC
HOP-92 NSCLC = system: HOP-92 NSCLC
HS 578T breast = system: HS 578T breast
HT29 colon = system: HT29 colon
IGROV1 ovarian = system: IGROV1 ovarian
K-562 leukemia = system: K-562 leukemia
KM12 colon = system: KM12 colon
LOX IMVI melanoma = system: LOX IMVI melanoma
M14 melanoma = system: M14 melanoma
MALME-3M melanoma = system: MALME-3M melanoma
MCF7 breast = system: MCF7 breast
MDA-MB-231 breast = system: MDA-MB-231 breast
MDA-MB-435 = system: MDA-MB-435
MOLT-4 leukemia = system: MOLT-4 leukemia
NCI-H226 lung = system: NCI-H226 lung
NCI-H23 lung = system: NCI-H23 lung
NCI-H460 lung = system: NCI-H460 lung
NCI-H522 lung = system: NCI-H522 lung
NCI/ADR-RES ovarian = system: NCI/ADR-RES ovarian
OVCAR-3 ovarian = system: OVCAR-3 ovarian
OVCAR-4 ovarian = system: OVCAR-4 ovarian
OVCAR-5 ovarian = system: OVCAR-5 ovarian
OVCAR-8 ovarian = system: OVCAR-8 ovarian
PC-3 prostate = system: PC-3 prostate
RXF 393 renal = system: RXF 393 renal
SF-268 CNS = system: SF-268 CNS
SF-295 CNS = system: SF-295 CNS
SF-539 CNS = system: SF-539 CNS
SK-MEL-2 melanoma = system: SK-MEL-2 melanoma
SK-MEL-28 melanoma = system: SK-MEL-28 melanoma
SK-MEL-5 melanoma = system: SK-MEL-5 melanoma
SK-OV-3 ovarian = system: SK-OV-3 ovarian
SN12C renal = system: SN12C renal
SNB-19 CNS = system: SNB-19 CNS
SNB-75 CNS = system: SNB-75 CNS
SR leukemia = system: SR leukemia
SW-620 colon = system: SW-620 colon
T-47D breast = system: T-47D breast
TK-10 renal = system: TK-10 renal
U251 CNS = system: U251 CNS
UACC-257 melanoma = system: UACC-257 melanoma
UACC-62 melanoma = system: UACC-62 melanoma
UO-31 renal = system: UO-31 renal

COc1cc2nc(-c3ccc(Cl)cc3)cc(OCCCN3CCCC3)c2cc1OC
GI50 (786-0 renal): 2780 nM
TGI (786-0 renal): 12100 nM
GI50 (A498 renal): 2190 nM
TGI (A498 renal): 5190 nM
GI50 (A549 NSCLC): 1520 nM
TGI (A549 NSCLC): 12400 nM
GI50 (ACHN renal): 1930 nM
TGI (ACHN renal): 8390 nM
GI50 (BT-549 breast): 1770 nM
TGI (BT-549 breast): 7370 nM
GI50 (CAKI-1 renal): 303 nM
TGI (CAKI-1 renal): 4150 nM
GI50 (CCRF-CEM leukemia): 2140 nM
TGI (CCRF-CEM leukemia): 7090 nM
GI50 (COLO 205 colon): 459 nM
TGI (COLO 205 colon): 3120 nM
GI50 (DU-145 prostate): 2150 nM
TGI (DU-145 prostate): 13800 nM
GI50 (EKVX NSCLC): 1210 nM
TGI (EKVX NSCLC): 12000 nM
GI50 (HCC-2998 colon): 1860 nM
TGI (HCC-2998 colon): 6010 nM
GI50 (HCT-116 colon): 699 nM
TGI (HCT-116 colon): 10100 nM
GI50 (HCT-15 colon): 567 nM
TGI (HCT-15 colon): 11500 nM
GI50 (HL-60(TB) leukemia): 2720 nM
TGI (HL-60(TB) leukemia): 8330 nM
GI50 (HOP-62 NSCLC): 1380 nM
TGI (HOP-62 NSCLC): 10600 nM
GI50 (HOP-92 NSCLC): 850 nM
TGI (HOP-92 NSCLC): 5430 nM
GI50 (HS 578T breast): 1890 nM
TGI (HS 578T breast): 6680 nM
GI50 (HT29 colon): 454 nM
TGI (HT29 colon): 4170 nM
GI50 (IGROV1 ovarian): 881 nM
TGI (IGROV1 ovarian): 11800 nM
GI50 (K-562 leukemia): 1060 nM
TGI (K-562 leukemia): 4680 nM
GI50 (KM12 colon): 2460 nM
TGI (KM12 colon): 10200 nM
GI50 (LOX IMVI melanoma): 191 nM
TGI (LOX IMVI melanoma): 446 nM
GI50 (M14 melanoma): 402 nM
TGI (M14 melanoma): 1510 nM
GI50 (MALME-3M melanoma): 1680 nM
TGI (MALME-3M melanoma): 4520 nM
GI50 (MCF7 breast): 1330 nM
TGI (MCF7 breast): 3070 nM
GI50 (MDA-MB-231 breast): 907 nM
TGI (MDA-MB-231 breast): 4080 nM
GI50 (MDA-MB-435): 2720 nM
TGI (MDA-MB-435): 10800 nM
GI50 (MOLT-4 leukemia): 1500 nM
TGI (MOLT-4 leukemia): 3470 nM
GI50 (NCI-H226 lung): 898 nM
TGI (NCI-H226 lung): 3210 nM
GI50 (NCI-H23 lung): 2450 nM
TGI (NCI-H23 lung): 12100 nM
GI50 (NCI-H460 lung): 823 nM
TGI (NCI-H460 lung): 11200 nM
GI50 (NCI-H522 lung): 2360 nM
TGI (NCI-H522 lung): 8890 nM
GI50 (NCI/ADR-RES ovarian): 683 nM
TGI (NCI/ADR-RES ovarian): 11000 nM
GI50 (OVCAR-3 ovarian): 2710 nM
TGI (OVCAR-3 ovarian): 13100 nM
GI50 (OVCAR-4 ovarian): 3000 nM
TGI (OVCAR-4 ovarian): 22600 nM
GI50 (OVCAR-5 ovarian): 1030 nM
TGI (OVCAR-5 ovarian): 13700 nM
GI50 (OVCAR-8 ovarian): 1190 nM
TGI (OVCAR-8 ovarian): 16100 nM
GI50 (PC-3 prostate): 1760 nM
TGI (PC-3 prostate): 10300 nM
GI50 (RXF 393 renal): 1170 nM
TGI (RXF 393 renal): 3780 nM
GI50 (SF-268 CNS): 2530 nM
TGI (SF-268 CNS): 15500 nM
GI50 (SF-295 CNS): 1220 nM
TGI (SF-295 CNS): 2940 nM
GI50 (SF-539 CNS): 2440 nM
TGI (SF-539 CNS): 8070 nM
GI50 (SK-MEL-2 melanoma): 2160 nM
TGI (SK-MEL-2 melanoma): 5220 nM
GI50 (SK-MEL-28 melanoma): 1480 nM
TGI (SK-MEL-28 melanoma): 4280 nM
GI50 (SK-MEL-5 melanoma): 961 nM
TGI (SK-MEL-5 melanoma): 2160 nM
GI50 (SK-OV-3 ovarian): 2420 nM
TGI (SK-OV-3 ovarian): 15300 nM
GI50 (SN12C renal): 914 nM
TGI (SN12C renal): 13700 nM
GI50 (SNB-19 CNS): 3140 nM
TGI (SNB-19 CNS): 14600 nM
GI50 (SNB-75 CNS): 1730 nM
TGI (SNB-75 CNS): 5090 nM
GI50 (SR leukemia): 251 nM
TGI (SR leukemia): 1380 nM
GI50 (SW-620 colon): 3120 nM
TGI (SW-620 colon): 13100 nM
GI50 (T-47D breast): 1020 nM
TGI (T-47D breast): 10500 nM
GI50 (TK-10 renal): 2330 nM
TGI (TK-10 renal): 7410 nM
GI50 (U251 CNS): 1790 nM
TGI (U251 CNS): 14500 nM
GI50 (UACC-257 melanoma): 1960 nM
TGI (UACC-257 melanoma): 4870 nM
GI50 (UACC-62 melanoma): 2030 nM
TGI (UACC-62 melanoma): 4570 nM
GI50 (UO-31 renal): 1720 nM
TGI (UO-31 renal): 6630 nM
